Measured values taken from ChEMBL document CHEMBL5233246, “CT1-3, a novel magnolol-sulforaphane hybrid suppresses tumorigenesis through inducing mitochondria-mediated apoptosis and inhibiting epithelial mesenchymal transition” (Eur J Med Chem, 2020).
Calls of active or inactive are those of the source. The rule behind the calls is not given here.

How the values were obtained:
NCI-H1650 = experiment: Antiproliferative activity against human NCI-H1650 cells assessed as reduction in cell viability incubated for 24 hrs by CCK-8 assay; format: functional, cell-based; details: NCI-H1650, 24 h
A549 = experiment: Antiproliferative activity against human A549 cells assessed as reduction in cell viability incubated for 24 hrs by CCK-8 assay; format: functional, cell-based; details: A549, 24 h
[1] = Antiproliferative activity against human […] cells assessed as reduction in cell viability incubated for 24 hrs by CCK-8 assay; format: functional, cell-based
L02 = experiment: Cytotoxicity against human L02 cells assessed as reduction in cell viability incubated for 8 hrs by CCK-8 assay; format: toxicity, cell-based; details: l02, 8 h
AGS = experiment: Antiproliferative activity against human AGS cells assessed as reduction in cell viability incubated for 24 hrs by CCK-8 assay; format: functional, cell-based
MCF7 = experiment: Antiproliferative activity against human MCF7 cells assessed as reduction in cell viability incubated for 24 hrs by CCK-8 assay; format: functional, cell-based; details: MCF7, 24 h
NCI-H460 [2] = experiment: Cytotoxicity against human NCI-H460 cells assessed as reduction in cell viability at 10 uM incubated for 8 hr by CCK-8 assay; format: functional, cell-based
NCI-H460 [3] = experiment: Antiproliferative activity against human NCI-H460 cells assessed as reduction in cell viability incubated for 24 hrs by CCK-8 assay; format: functional, cell-based; details: NCI-H460, 24 h
SW480 = experiment: Antiproliferative activity against human SW480 cells assessed as reduction in cell viability incubated for 24 hrs by CCK-8 assay; format: functional, cell-based; details: SW480, 24 h
U-251 = experiment: Antiproliferative activity against human U-251 cells assessed as reduction in cell viability incubated for 24 hrs by CCK-8 assay; format: functional, cell-based; details: U-251, 24 h
HONE1 cell line = experiment: Antiproliferative activity against human HONE1 cell line assessed as reduction in cell viability incubated for 24 hrs by CCK-8 assay; format: functional, cell-based; details: HONE1, 24 h
[4] = Antiproliferative activity against human NCI-H1688 cells assessed as reduction in cell viability incubated for 24 hrs by CCK-8 assay; format: functional, cell-based; details: NCI-H1688, 24 h
HepG2 = experiment: Antiproliferative activity against human HepG2 cells assessed as reduction in cell viability incubated for 24 hrs by CCK-8 assay; format: functional, cell-based; details: HepG2, 24 h
SGC-7901 = experiment: Antiproliferative activity against human SGC-7901 cells assessed as reduction in cell viability incubated for 24 hrs by CCK-8 assay; format: functional, cell-based; details: SGC-7901, 24 h
NCI-H1299 = experiment: Antiproliferative activity against human NCI-H1299 cells assessed as reduction in cell viability incubated for 24 hrs by CCK-8 assay; format: functional, cell-based; details: NCI-H1299, 24 h
OVCAR-3 = experiment: Antiproliferative activity against human OVCAR-3 cells assessed as reduction in cell viability incubated for 24 hrs by CCK-8 assay; format: functional, cell-based; details: OVCAR-3, 24 h
MDA-MB-231 = experiment: Antiproliferative activity against human MDA-MB-231 cells assessed as reduction in cell viability incubated for 24 hrs by CCK-8 assay; format: functional, cell-based; details: MDA-MB-231, 24 h
LoVo = experiment: Antiproliferative activity against human LoVo cells assessed as reduction in cell viability incubated for 24 hrs by CCK-8 assay; format: functional, cell-based

| IC50 (NCI-H1650) [µM] | IC50 (A549) [µM] | IC50 (AGS) [µM] | IC50 (MCF7) [µM] | IC50 (NCI-H460 [3]) [µM] | IC50 (SW480) [µM] | IC50 (U-251) [µM] | IC50 (HepG2) [µM] | IC50 (SGC-7901) [µM] | IC50 (NCI-H1299) [µM] | IC50 (OVCAR-3) [µM] | IC50 (MDA-MB-231) [µM] | IC50 (LoVo) [µM] | Structure (SMILES) | IC50 [1] [µM] | Activity (L02) | Activity (NCI-H460 [2]) | IC50 (HONE1 cell line) [µM] | IC50 [4] [µM] |
| --- | --- | --- | --- | --- | --- | --- | --- | --- | --- | --- | --- | --- | --- | --- | --- | --- | --- | --- |
| > 45 | > 45 | > 45 | > 45 | > 45 | > 45 | > 45 | > 45 | > 45 | > 45 | > 45 | > 45 | > 45 | C=CCc1ccc(O)c(-c2cc(CC=C)ccc2O)c1 [MAGNOLOL] | > 45 | Non-Toxic | inactive | > 45 | > 45 |
| – | – | – | – | – | – | – | – | – | – | – | – | – | C=CCc1ccc(O)c(-c2cc(CC=C)ccc2OCCS(=O)(=O)CCCCN=C=S)c1 | – | Non-Toxic | inactive | – | – |
| – | – | – | – | – | – | – | – | – | – | – | – | – | C=CCc1ccc(O)c(-c2cc(CC=C)ccc2OCCSCCCCN=C=S)c1 | – | Non-Toxic | inactive | – | – |
